Results on five compounds are retold here after patent US8865662B2, “Macrolides and their use” (Basilea Pharmaceutica AG, priority 2009, dated 2014).

For the experiment, the system named is human PDE4. In words: IMAP FP enzymatic assay of PDE4 inhibition. Conditions: PDE4 partially purified from human monocytic U-937 cells; fluorescently labeled cAMP substrate; 90 minutes at room temperature; fluorescence polarization. Type of experiment: biochemical. As to the method:
PDE4 specifically hydrolyzes cAMP and releases the product AMP. The potency of PDE inhibition by said agents is determined in an in vitro enzymatic assay. The assay is commercially available (IMAP™ FP assay Molecular Devices Corp. (MDS)) and is optimized for the use of human PDE4. Fluorescently labeled cAMP is hydrolyzed by PDE4 and in a second step, binding of labeled product to a large binding partner allowed product detection by fluorescence polarization (FP) measurements.
PDE4 is partially purified from undifferentiated human monocytic cells (U-937) according to Thorpy et al. 1992 (J. Pharmacol. Exp. Ther. 263: 1195). […] In addition, PDE4 preparations are validated by inhibition studies with PDE4-specific and unspecific PDE inhibitors.
Stock solutions of test compounds are made in DMSO and diluted in assay buffer (10 mM Tris-HCl, 10 mM MgCl2, 0.1% BSA 0.05% NaN3, pH 7.2) to the desired concentrations. The solutions used in the assay contained test compound in assay buffer with 2% DMSO.
10 μl of substrate (at a concentration recommended by the manufacturer) are mixed with 5 μl of appropriately diluted PDE and 5 μl of test compound solution. 5 μl of reaction buffer with 2% DMSO are used for control reactions. […] After incubation for 90 minutes at room temperature, 60 μl of binding reagent are added as specified by the manufacturer. Binding is allowed to proceed for 30 minutes and fluorescence polarization is measured. Dose dependence of PDE inhibition is measured by assaying dilution series of test compounds in duplicates. IC50 values are determined from the measured activities by curve fitting.
For orientation: In fluorescence polarisation assays a small probe gives low polarisation when free and higher when bound to something large.

In the case of `CC[C@H]1OC(=O)[C@H](C)[C@@H](O[C@H]2C[C@@](C)(OC)[C@@H](O)[C@H](C)O2)[C@H](C)[C@@H](O[C@@H]2O[C@H](C)C[C@H](N(C)C(=O)N3CCOCC3)[C@H]2O)[C@](C)(OC)C[C@@H](C)C(=O)[C@H](C)[C@H]2N(CCCN(Cc3c(Cl)cncc3Cl)c3ccc(OC)c(OC4CCCC4)c3)C(=O)O[C@]12C` [Example 1], the concentration for half-maximal inhibition (IC50) came out at 230 nM.
The figure for `CC[C@H]1OC(=O)[C@H](C)[C@@H](O)[C@H](C)[C@@H](O[C@@H]2O[C@H](C)C[C@H](N(C)C(=O)N3CCOCC3)[C@H]2O)[C@](C)(OC)C[C@@H](C)C(=O)[C@H](C)[C@H]2N(CCCN(Cc3c(Cl)cncc3Cl)c3ccc(OC)c(OC4CCCC4)c3)C(=O)O[C@]12C` [Example 2] is 880 nM.
The figure for `CC[C@H]1OC(=O)[C@H](C)[C@@H](O[C@H]2C[C@@](C)(OC)[C@@H](O)[C@H](C)O2)[C@H](C)[C@@H](O[C@@H]2O[C@H](C)C[C@H](N(C)C(=O)N3CCOCC3)[C@H]2O)[C@](C)(OC)C[C@@H](C)C(=O)[C@H](C)[C@H]2N(CCCOc3cc(C(=O)Nc4c(Cl)cncc4Cl)ccc3OC)C(=O)O[C@]12C` [Example 3] is 630 nM; for `CC[C@H]1OC(=O)[C@H](C)[C@@H](O)[C@H](C)[C@@H](O[C@@H]2O[C@H](C)C[C@H](N(C)C(=O)N3CCOCC3)[C@H]2O)[C@](C)(OC)C[C@@H](C)C(=O)[C@H](C)[C@H]2N(CCCOc3cc(C(=O)Nc4c(Cl)cncc4Cl)ccc3OC)C(=O)O[C@]12C` [Example 4] it is 30 nM; for `CC[C@H]1OC(=O)[C@H](C)[C@@H](OC(=O)CN2CCOCC2)[C@H](C)[C@@H](O[C@@H]2O[C@H](C)C[C@H](N(C)C(=O)CN(C)C)[C@H]2O)[C@](C)(OC)C[C@@H](C)C(=O)[C@H](C)[C@H]2N(CCCOc3cc(C(=O)Nc4c(Cl)cncc4Cl)ccc3OC)C(=O)O[C@]12C` [Example 5] it is 200 nM.

By IC50 is commonly meant the concentration that gives 50% inhibition. Low readings indicate inhibition by little substance, high ones a need for much substance.
